Source: ChEMBL document CHEMBL1151606, “Relationship of structure of bridged (2,6-dimethyl-4-pyridinyl)quinolones to mammalian topoisomerase II inhibition” (Bioorg Med Chem Lett, 1993)

Tests used:
[1] = target: DNA topoisomerase II (Homo sapiens, UniProt P11388+Q02880); assay: Tested for inhibitory activity against Topoisomerase II isolated from HeLa cells by using SDS-K+ precipitation method; type: cell-based
[2] = system: Mus musculus; assay: Tested for the increased life span (ILS) in murine leukemia model (in which P388 administered intraperitoneally), at a concentration of 1014 mg/kg; type: functional; settings: P388, ip, route intraperitoneal
[3] = system: Mus musculus; assay: Tested for the increased life span (ILS) in murine leukemia model (in which P388 administered intraperitoneally), at a concentration of 180 mg/kg; type: functional; settings: P388, ip, route intraperitoneal

Compound | EC50 [1] | ILS at 1014 mg/kg [2] | ILS at 180 mg/kg [3]
Cc1cc(-c2c(F)cc3c(=O)c(C(=O)O)cn4c3c2OCC[C@@H]4C)cc(C)n1 | 150 µM |  | 
C[C@H]1COc2c(-c3ccncc3)c(F)cc3c(=O)c(C(=O)O)cn1c23 | 57 µM |  | 
Cc1cc(-c2c(F)cc3c(=O)c(C(=O)O)cn4c3c2SC[C@@H]4C)cc(C)n1 | 9.4 µM | 90% | 
Cc1cc(-c2c(F)cc3c(=O)c(C(=O)O)cn4c3c2OCC42CC2)cc(C)n1 | > 130 µM |  | 
Cc1cc(-c2c(F)c(F)c3c(=O)c(C(=O)O)cn4c3c2OC[C@@H]4C)cc(C)n1 | 50 µM |  | 
C[C@H]1COc2c(-c3ccc4cnccc4c3)c(F)cc3c(=O)c(C(=O)O)cn1c23 | 58 µM |  | 
Cc1cc(-c2ccc3c(=O)c(C(=O)O)cn4c3c2OC[C@@H]4C)cc(C)n1 | > 290 µM |  | 
COc1cc([C@@H]2c3cc4c(cc3C(O[C@@H]3O[C@@H]5CO[C@@H](C)O[C@H]5[C@H](O)[C@H]3O)C3COC(=O)[C@@H]32)OCO4)cc(OC)c1O (single isomer, unassigned) [ETOPOSIDE] |  |  | 220%

The next lines start with results.

EC50 [1] | Compound | ILS at 1014 mg/kg [2] | ILS at 180 mg/kg [3]
31 µM | Cc1cc(-c2c(F)cc3c(=O)c(C(=O)O)cn4c3c2OC[C@@H]4C)cc(C)n1 |  | 
730 µM | Cc1cc(-c2c(F)cc3c(=O)c(C(=O)O)cn4c3c2NC[C@@H]4C)cc(C)n1 |  | 
510 µM | Cc1cc(-c2c(F)cc3c(=O)c(C(=O)O)cn4c3c2OCC4(C)C)cc(C)n1 |  | 
> 570 µM | CCn1cc(C(=O)O)c(=O)c2cc(F)c(-c3cc(C)nc(C)c3)cc21 |  | 
62 µM | Cc1cc(-c2c(F)cc3c(=O)c(C(=O)O)cn4c3c2[S+]([O-])C[C@@H]4C)cc(C)n1 (stereo partly drawn) |  | 
420 µM | CC[C@H]1COc2c(-c3cc(C)nc(C)c3)c(F)cc3c(=O)c(C(=O)O)cn1c23 |  | 
> 260 µM | Cc1cc(-c2c(F)cc3c(=O)c(C(=O)O)cn4c3c2SC[C@H]4C)cc(C)n1 |  | 
> 540 µM | Cc1cc(-c2c(F)cc3c(=O)c(C(=O)O)cn4c3c2OC[C@H]4C)cc(C)n1 |  | 
> 560 µM | Cc1cc(-c2c(F)cc3c(=O)c(C(=O)O)cn4c3c2OCC4)cc(C)n1.Cl |  | 
